The record followed here is patent publication US20250382296A1, “NITROGEN-CONTAINING FUSED THREE RING PRMT5 INHIBITOR, AND PREPARATION METHOD THEREFOR AND PHARMACEUTICAL USE THEREOF” (Abbisko Therapeutics Co., Ltd., priority 2022, published 2025).

Assay [1] has as its system HCT 116 wild-type MTAP cells. The assay can be described thus: Inhibition of proliferation of HCT116 wild-type MTAP cells (CellTiter-Glo, 6 days). Type of assay: cell-based. The following applies: Homo sapiens, HCT-116, 144 h. As for the experimental part:
(§1) 1. HCT 116 MTAP-knockout cells and HCT 116 wild-type MTAP cells were plated in 96-well flat-bottom plates and cultured overnight at 37° C. and […] in McCoy's 5A medium containing 10% fetal bovine serum+1% penicillin-streptomycin.
(§2) 2. The next day, compounds were each dissolved in DMSO, diluted successively with DMSO and medium and then transferred to cell plates; the final concentration of each compound was 10 μM, 4-fold dilution was performed to obtain 9 concentration points, and a DMSO control was provided.
(§3) 3. Cells not treated with compound were subjected to CellTiter-Glo Luminescent Cell Viability Assay (Promega) to detect the cell viability, and reference was made to the kit instructions for the operation; the plates were then placed on an EnVision Multilabel Reader to detect luminescence signals.
(§4) 4. Meanwhile, the cell plates containing cells treated with compounds were cultured continuously at 37° C. and […] CO2 for 6 days.
(§5) 5. Then, the cell viability was also detected by CellTiter-Glo.
(§6) 6. Finally, dose response curves were plotted using the four parameter dose response curve module of GraphPad Prism v 9.2.0 software and proliferation inhibition IC50 (unit: nM) was calculated.
For orientation: Cellular ATP, detected with luciferase, serves as a proxy for viable cell number.

For assay [2], the system named is HCT 116 MTAP-knockout cells. Put plainly: Inhibition of proliferation of HCT116 MTAP-knockout cells (CellTiter-Glo, 6 days). Type of assay: cell-based, human. The following applies: for pIC50: Homo sapiens, HCT-116, 144 h, proliferation inhibition, HCT116 MTAP-knockout, 6 days, CellTiter-Glo; for Selectivity: IC50 HCT116 wild-type cells / IC50 HCT116 MTAP-knockout cells. On the procedure: as §1, §2, §3, §4, §5, §6

Structures are written as SMILES. pIC50: −log10 of the molar value.

Consider `C[Si](C)(C)CCOCn1cc(N(C(=O)c2ccc3nc(N)c4cncn4c3c2)[C@@H]2COc3cc(C(F)(F)F)ccc32)cn1` [Example 217, (S)-4-amino-N-(6-(trifluoromethyl)-2,3-dihydrobenzofuran-3-yl)-N-(1-((2-(trimethylsilyl)ethoxy)methyl)-1H-pyrazol-4-yl)imidazo[1,5-a]quinoxaline-8-carboxamide], for which the pIC50 (in general, −log10 of the IC50, conventionally taken in molar units) in assay [1] was 6.26. Besides, in assay [2], the negative logarithm of the IC50 (pIC50) is 7.39 and the Selectivity is on record as 13.3.

In the case of `Cn1cc(N(C(=O)c2cc3c(cc2F)nc(N)c2cncn23)[C@@H]2COc3cc(C(F)(F)F)ccc32)cn1` [Example 218, (S)-4-amino-7-fluoro-N-(1-methyl-1H-pyrazol-4-yl)-N-(6-(trifluoromethyl)-2,3-dihydrobenzofuran-3-yl)imidazo[1,5-a]quinoxaline-8-carboxamide], in assay [1], the negative logarithm of the IC50 (pIC50) is 7.33. In assay [2], this molecule gave a pIC50 of 8.70 and a Selectivity of 23.5.

As to `Cn1cc(N(C(=O)c2cc3c(cc2F)nc(N)c2cncn23)[C@@H]2COc3nc(C(F)(F)F)ccc32)cn1` [Example 219, (S)-4-amino-7-fluoro-N-(1-methyl-1H-pyrazol-4-yl)-N-(6-(trifluoromethyl)-2,3-dihydrofuro[2,3-b]pyridin-3-yl)imidazo[1,5-a]quinoxaline-8-carboxamide], in assay [1], the pIC50 was 6.59. Further, in assay [2], the negative logarithm of the IC50 (pIC50) was 8.52 and the Selectivity is reported as 85.7.

In assay [1], `C[C@@H]1CCN(C(=O)c2ccc3nc(N)c4cncn4c3c2)[C@@H](c2ccc3scnc3c2)C1` [Example 225, (4-aminoimidazo[1,5-a]quinoxalin-8-yl)((2R,4R)-2-(benzo[d]thiazol-5-yl)-4-methylpiperidin-1-yl)methanone] had a pIC50 of less than 5.00. Moreover, in assay [2], the negative logarithm of the IC50 (pIC50) was 6.30 and the Selectivity is on record as more than 20.

In turn, `Cc1cc2nc(N)c3cncn3c2cc1C(=O)N1CC[C@@H](C)C[C@@H]1c1ccc2scnc2c1` [Example 226, (4-amino-7-methylimidazo[1,5-a]quinoxalin-8-yl)((2R,4R)-2-(benzo[d]thiazol-5-yl)-4-methylpiperidin-1-yl)methanone] gave a pIC50 in assay [1] of less than 5.00. Also, in assay [2], the pIC50 is 6.49 and the Selectivity is more than 31.

Turning to `C[C@H]1CC[C@H](c2ccc3scnc3c2)N(C(=O)c2ccc3nc(N)c4cncn4c3c2)C1` [Example 227, (4-aminoimidazo[1,5-a]quinoxalin-8-yl)((2R,5S)-2-(benzo[d]thiazol-5-yl)-5-methylpiperidin-1-yl)methanone], the pIC50 was 5.46 in assay [1] and 7.92 in assay [2]. In addition, the Selectivity in assay [2] is given as 283.

The molecule `Cc1cc2nc(N)c3cncn3c2cc1C(=O)N1C[C@@H](C)CC[C@@H]1c1ccc2scnc2c1` [Example 228, (4-amino-7-methylimidazo[1,5-a]quinoxalin-8-yl)((2R,5S)-2-(benzo[d]thiazol-5-yl)-5-methylpiperidin-1-yl)methanone] had a negative-log IC50 (pIC50) in assay [1] of 5.27. In assay [2], this molecule gave a pIC50 of 6.99 and a Selectivity of 52.1.

In the case of `Cc1ncc2c(N)nc3ccc(C(=O)N(c4cnn(C)c4)[C@@H]4COc5cc(C(F)(F)F)ccc54)cc3n12` [Example 229, (S)-4-amino-1-methyl-N-(1-methyl-1H-pyrazol-4-yl)-N-(6-(trifluoromethyl)-2,3-dihydrobenzofuran-3-yl)imidazo[1,5-a]quinoxaline-8-carboxamide], the pIC50 in assay [1] was 6.03. In assay [2], the pIC50 was 7.80 and the Selectivity stood at 58.4.

As for `Cc1cc2nc(N)c3cncn3c2cc1C(=O)N(C)Cc1ccc(C(F)(F)F)cn1` [Example 230, 4-amino-N,7-dimethyl-N-((5-(trifluoromethyl)pyridin-2-yl)methyl)imidazo[1,5-a]quinoxaline-8-carboxamide], the pIC50 in assay [1] was 5.12. In addition, in assay [2], the negative logarithm of the IC50 (pIC50) is 6.97 and the Selectivity was found to be 70.1.

With `Cc1cc2nc(N)c3cnc(C)n3c2cc1C(=O)N(C)Cc1ccc(C(F)(F)F)cn1` [Example 231, 4-amino-N,1,7-trimethyl-N-((5-(trifluoromethyl)pyridin-2-yl)methyl)imidazo[1,5-a]quinoxaline-8-carboxamide], the pIC50 in assay [1] is less than 5.00. In addition, in assay [2], the pIC50 is 6.76 and the Selectivity was more than 57.5.

In assay [1], `Cn1cc(N(C(=O)c2cc3c(cc2F)nc(N)c2cccn23)[C@@H]2COc3cc(C(F)(F)F)ccc32)cn1` [Example 233, (S)-4-amino-7-fluoro-N-(1-methyl-1H-pyrazol-4-yl)-N-(6-(trifluoromethyl)-2,3-dihydrobenzofuran-3-yl)pyrrolo[1,2-a]quinoxaline-8-carboxamide] gave a pIC50 of 6.25. In assay [2], this molecule had a pIC50 of 7.77 and a Selectivity of 33.2.
